Paper PMC12044326 (Clinical Pharmacology in Drug Development, 2025)

Assays:
P‐glycoprotein (P‐gp) = target: T1, P‐glycoprotein (P‐gp) (Homo sapiens, UniProt P08183); type: in vitro ADME
T1 construct: Caco-2 cells were obtained from American Type Culture Collection; host or cells: Caco-2 cell monolayers
Description: (§1) Prior to the experiments,
(§2) The cells were cultured at […]
(§3) measuring the trans-epithelial electrical resistance (TEER) value. The TEER values of cell […]
(§4) The volumes of the replaced […]
(§5) shaker at 37°C until use.
(§6) Apical to Basal Transport (A to B).
(§7) (soticlestat or quinidine) were added.
(§8) After incubation for 1 hour, 100 μL […]
(§9) radioactivity using an LSC. […]
(§10) collected and measured for the radioactivity using an LSC.
(§11) Basal to Apical Transport (B to A).
(§12) (soticlestat or quinidine) were added. […] Then […]
(§13) cells were incubated at 37°C.
(§14) HBSS solution were added to the apical side.

P‐gp = target: T2, P‐gp (Homo sapiens, UniProt P08183); type: in vitro ADME
T2 construct: Caco-2 cells were obtained from American Type Culture Collection; host or cells: Caco-2 cell monolayers
T2 sequence (P08183 whole entry): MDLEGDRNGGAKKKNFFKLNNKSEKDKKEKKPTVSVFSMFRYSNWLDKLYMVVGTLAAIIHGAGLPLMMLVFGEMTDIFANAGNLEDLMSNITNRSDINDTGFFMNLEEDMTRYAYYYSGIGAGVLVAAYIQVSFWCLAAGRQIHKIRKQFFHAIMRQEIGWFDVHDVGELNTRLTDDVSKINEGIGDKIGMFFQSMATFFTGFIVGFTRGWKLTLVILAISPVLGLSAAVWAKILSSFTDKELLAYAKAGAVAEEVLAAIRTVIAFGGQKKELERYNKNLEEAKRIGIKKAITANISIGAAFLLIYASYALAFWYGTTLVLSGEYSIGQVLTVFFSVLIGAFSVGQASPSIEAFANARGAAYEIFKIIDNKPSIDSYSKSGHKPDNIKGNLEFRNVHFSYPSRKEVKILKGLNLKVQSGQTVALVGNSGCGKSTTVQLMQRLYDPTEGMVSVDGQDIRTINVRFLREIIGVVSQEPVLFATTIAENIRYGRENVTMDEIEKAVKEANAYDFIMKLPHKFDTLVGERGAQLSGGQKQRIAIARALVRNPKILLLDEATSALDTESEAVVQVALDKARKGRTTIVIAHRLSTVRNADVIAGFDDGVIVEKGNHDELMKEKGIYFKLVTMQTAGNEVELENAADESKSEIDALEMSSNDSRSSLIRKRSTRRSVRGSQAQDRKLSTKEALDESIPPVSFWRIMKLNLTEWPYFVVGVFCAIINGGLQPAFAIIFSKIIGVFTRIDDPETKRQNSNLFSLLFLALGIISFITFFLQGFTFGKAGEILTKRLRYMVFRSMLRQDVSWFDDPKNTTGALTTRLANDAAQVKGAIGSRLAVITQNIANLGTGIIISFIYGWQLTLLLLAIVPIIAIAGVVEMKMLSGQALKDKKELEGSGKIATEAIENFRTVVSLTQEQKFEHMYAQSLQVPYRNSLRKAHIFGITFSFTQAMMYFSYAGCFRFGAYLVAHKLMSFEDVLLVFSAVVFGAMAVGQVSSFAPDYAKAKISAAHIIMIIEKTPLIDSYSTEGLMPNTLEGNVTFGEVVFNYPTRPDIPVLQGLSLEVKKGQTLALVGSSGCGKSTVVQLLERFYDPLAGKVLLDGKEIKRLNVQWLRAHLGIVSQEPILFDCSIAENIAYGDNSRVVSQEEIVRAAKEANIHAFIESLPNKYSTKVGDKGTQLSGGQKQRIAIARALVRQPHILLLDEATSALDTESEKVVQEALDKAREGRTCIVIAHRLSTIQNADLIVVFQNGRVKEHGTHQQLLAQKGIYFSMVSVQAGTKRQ
Description: as §1, §2, §3, §4, §5, §6, §7, §8, §9, §10, §11, §12, §13, §14

UGT1A9 [1] = target: T3, UGT1A9 (Homo sapiens, UniProt O60656); settings: both, 20 min, pH 7.4
T3 sequence (O60656 26-530): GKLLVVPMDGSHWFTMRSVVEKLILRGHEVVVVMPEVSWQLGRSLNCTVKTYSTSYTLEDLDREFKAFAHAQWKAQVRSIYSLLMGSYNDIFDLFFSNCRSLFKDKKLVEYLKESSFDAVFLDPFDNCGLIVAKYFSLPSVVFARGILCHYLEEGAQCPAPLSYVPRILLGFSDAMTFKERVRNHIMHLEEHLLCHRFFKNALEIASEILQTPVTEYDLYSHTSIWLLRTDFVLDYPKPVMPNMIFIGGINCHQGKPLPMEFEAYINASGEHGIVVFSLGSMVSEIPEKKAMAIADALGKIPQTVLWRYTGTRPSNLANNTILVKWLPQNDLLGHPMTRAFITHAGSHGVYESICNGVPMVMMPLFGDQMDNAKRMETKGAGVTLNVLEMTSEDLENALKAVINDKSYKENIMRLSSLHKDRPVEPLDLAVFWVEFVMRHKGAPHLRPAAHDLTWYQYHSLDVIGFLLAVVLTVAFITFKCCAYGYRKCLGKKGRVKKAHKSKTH

CYP2C8 = target: T4, CYP2C8 (Homo sapiens, UniProt P10632); assay: Reversible CYP inhibition in human liver microsomes
T4 sequence (P10632 1-490): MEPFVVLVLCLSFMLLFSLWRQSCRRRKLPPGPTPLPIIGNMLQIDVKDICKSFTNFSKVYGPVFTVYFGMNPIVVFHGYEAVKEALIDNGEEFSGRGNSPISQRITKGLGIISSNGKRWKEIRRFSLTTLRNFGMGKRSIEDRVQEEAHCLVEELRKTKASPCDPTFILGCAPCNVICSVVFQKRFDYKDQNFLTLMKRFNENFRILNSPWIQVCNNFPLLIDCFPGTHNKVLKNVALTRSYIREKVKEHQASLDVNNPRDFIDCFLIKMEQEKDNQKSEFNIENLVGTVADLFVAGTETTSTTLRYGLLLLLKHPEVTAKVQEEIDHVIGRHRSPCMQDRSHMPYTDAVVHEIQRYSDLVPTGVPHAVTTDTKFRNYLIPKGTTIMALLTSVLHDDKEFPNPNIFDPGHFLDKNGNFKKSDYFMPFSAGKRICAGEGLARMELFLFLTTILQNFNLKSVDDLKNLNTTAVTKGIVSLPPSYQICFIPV

OATP1B1 = target: T5, OATP1B1 (Homo sapiens, UniProt Q9Y6L6)
T5 sequence (Q9Y6L6 1-691): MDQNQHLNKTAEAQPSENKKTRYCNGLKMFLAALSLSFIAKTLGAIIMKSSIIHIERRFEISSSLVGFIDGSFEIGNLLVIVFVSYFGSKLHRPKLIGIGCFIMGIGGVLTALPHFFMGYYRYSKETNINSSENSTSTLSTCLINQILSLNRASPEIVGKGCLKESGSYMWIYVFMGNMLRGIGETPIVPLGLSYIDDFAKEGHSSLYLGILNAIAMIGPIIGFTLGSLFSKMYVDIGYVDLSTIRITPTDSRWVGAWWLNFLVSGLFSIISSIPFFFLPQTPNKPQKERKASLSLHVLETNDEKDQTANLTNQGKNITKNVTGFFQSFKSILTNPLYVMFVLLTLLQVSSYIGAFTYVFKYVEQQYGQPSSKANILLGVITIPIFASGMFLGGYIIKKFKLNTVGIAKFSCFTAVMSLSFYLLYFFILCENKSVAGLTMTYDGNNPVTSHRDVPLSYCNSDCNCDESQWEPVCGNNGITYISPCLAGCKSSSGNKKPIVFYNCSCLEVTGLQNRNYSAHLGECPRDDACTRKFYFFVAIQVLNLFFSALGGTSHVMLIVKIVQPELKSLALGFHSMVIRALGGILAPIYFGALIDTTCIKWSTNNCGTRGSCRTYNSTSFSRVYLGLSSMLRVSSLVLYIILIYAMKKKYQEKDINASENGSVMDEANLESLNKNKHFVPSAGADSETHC

UGT1A9 [2] = target: T3, UGT1A9; parameters: with alamethicin-pretreated HLMs (0.5 mg/mL); tissue Sekisui-XenoTech; host or cells: pooled human liver microsomes (200 donors); settings: predicted by combining in vitro phenotyping and human ADME data; cited from earlier work
in vitro = settings: human, Caco-2
Description: Caco-2 cells were obtained from American Type Culture Collection. Prior to the experiments,
the cells were seeded on 55 cm2 bottom culture dishes (Corning). The cells were cultured at
37°C in a humidified CO2 (5%) incubator and routinely passaged about once a week. Caco-2
cultured in the medium at 37°C in a humidified CO2 (5%) incubator for 23 days to prepare cell
The medium was changed 4 days after seeding and then changed every 2 or 3 days
thereafter. Before the experiment, the integrity of the Caco-2 cell monolayer was checked by
In the transport experiments, the medium of top side of the cells (apical side) and basal
side of the cells (basal side) were replaced with the DMSO-HBSS solution, the inhibitor-HBSS
control), or the test solutions (digoxin and mannitol as substrates). The volumes of the replaced
solutions were 300 μL for the apical side and 1 mL for the basal side. The DMSO-HBSS […]
of the solution in each basal side (receiver side) were collected and measured for the
collected and measured for the radioactivity using an LSC. […]
side (receiver side) were collected and measured for the radioactivity using an LSC. […]
in each apical side and each basal side (donor side) were collected and measured for the

CYP2B6 = settings: hepatocytes
Description: respectively; XenoTech) were treated once daily for 3 consecutive days and cultured according
to previously described methods.2-4 Each culture well was treated with supplemented modified Chee's medium (0.2 mL) containing 0.1% v/v d imethylsulfoxide (DM SO ; vehicle control),
μmol/L) or 1 of 3 known human CYP enzyme inducers (omeprazole 50 μmol/L, phenobarbital
Cultures were visualized with a
representative well from each treatment group was photographed with a PAXcam 5 (MIS, Inc.
Villa Park, IL, USA) digital camera to document morphological integrity.
β-mercaptoethanol (1:100), and the cell lysates were stored at −80°C. For each hepatocyte preparation, media from 3 wells per treatment group were aspirated, and 250 μL buf f er RLT was added to each well. The cell lysates were mixed by shaking (10 minutes at 800 rpm) and total RNA was isolated with a MagMAX-96 (Ambion/ Thermo Fisher Scientific) for Microarrays Kit using the RNeasy Mini Kit (Qiagen Inc., Germantown, MD, USA). The analysis of RNA integrity was carried out with the RNA 6000 Nano Assay Kit on an Agilent 2100 Bioanalyzer (Agilent Technologies, Inc., Santa Clara, CA, USA). […]
prepared samples were stored at −20°C prior to analysis by quantitative real-time (qRT)- […]

T1 sequence (P08183 whole entry): as the sequence (P08183 whole entry) above

Compound: O=C(c1cccnc1-c1ccncc1)N1CCC(O)(Cc2ccccc2)CC1 [Soticlestat]
- IC50 (P‐glycoprotein (P‐gp)): 81.1 µM
- Ki (P‐glycoprotein (P‐gp)): 80 µM
- substrate for P‐gp (P‐gp): not a substrate
- fm of total UGT mediated glucuronidation via UGT1A9 (UGT1A9 [1]): ~10%
- Ki (CYP2C8): 14.5 µM
- fumic (CYP2C8; human): 0.98
- inhibition of CYP2C8 (CYP2C8; microsomes): low double‐digit micromolar values
- inhibition of OATP1B1 (OATP1B1): did not demonstrate clinically relevant inhibition
- fm by UGT1A9 (UGT1A9 [2]): 9.3%
- Papp (in vitro): 23.4 ×10⁻⁶ cm/s
- induction of CYP2B6 (CYP2B6): nor did soticlestat induce
